In US11331369B2, “Endoparasitic depsipeptides” (Zoetis Services LLC, priority 2017, dated 2022):

Tests used:
Type in all cases: cell-based
[1] = tested on: microfilariae of Dirofilaria immitis; assay: Dirofilaria immitis, Microfilaria (DiMF) In vitro Assay; conditions: 72 h, read-out: DiMF Minimum Effective Dose (MED), approximately 72 hours incubation, microfilariae assessed for survival or paralysis
[2] = tested on: third stage larvae of Haemonchus contortus; assay: Haemonchus contortus L3 (HcL3) Assay; conditions: 96 h, read-out: HcL3 Minimum Effective Dose (MED)
[3] = tested on: 4th stage larvae (L4) of Dirofilaria immitis; assay: Dirofilaria immitis, L4 Stage (DiL4) In Vitro Assay; conditions: Dirofilaria immitis, 72 h, read-out: DiL4 Minimum Effective Dose (MED), approximately 72 hours incubation; L4 larvae assessed for survival or paralysis

Row | Structure (SMILES) | minimal effective concentration [1] [µM] | minimal effective concentration [2] [µM] | minimal effective concentration [3] [µM]
1 | CC(C)C[C@H]1C(=O)O[C@H](Cc2ccc(Cn3nccc3C3(C)COC3)cc2)C(=O)N(C)[C@@H](CC(C)C)C(=O)O[C@H](C)C(=O)N(C)[C@@H](CC(C)C)C(=O)O[C@H](Cc2ccc(Cn3nccc3C3(C)COC3)cc2)C(=O)N(C)[C@@H](CC(C)C)C(=O)O[C@H](C)C(=O)N1C [Example 1b-221, (3S,6R,9S,12R,15S,18R,21S,24R)-3,9,15,21-tetraisobutyl-4,6,10,16,18,22-hexamethyl-12,24-bis(4-((5-(3-methyloxetan-3-yl)-1H-pyrazol-1-yl)methyl)benzyl)-1,7,13,19-tetraoxa-4,10,16,22-tetraazacyclotetracosan-2,5,8,11,14,17,20,23-octaone] | 0.001 to 0.01 | 1 to 10 | 0.001 to 0.01
2 | CC(C)C[C@H]1C(=O)O[C@H](Cc2ccc(Cn3nccc3C3CC3C)cc2)C(=O)N(C)[C@@H](CC(C)C)C(=O)O[C@H](C)C(=O)N(C)[C@@H](CC(C)C)C(=O)O[C@H](Cc2ccc(Cn3nccc3C3CC3C)cc2)C(=O)N(C)[C@@H](CC(C)C)C(=O)O[C@H](C)C(=O)N1C (stereo partly drawn) [Example 1b-222, (3S,6R,9S,12R,15S,18R,21S,24R)-3,9,15,21-tetraisobutyl-4,6,10,16,18,22-hexamethyl-12,24-bis(4-((5-(2-methylcyclopropyl)-1H-pyrazol-1-yl)methyl)benzyl)-1,7,13,19-tetraoxa-4,10,16,22-tetraazacyclotetracosan-2,5,8,11,14,17,20,23-octaone] | 0.01 to 0.1 | ≤ 1 | 0.0001 to 0.001
3 | CC(C)C[C@H]1C(=O)O[C@H](Cc2ccc(C3(n4cc(Cl)cn4)CCC3)cc2)C(=O)N(C)[C@@H](CC(C)C)C(=O)O[C@H](C)C(=O)N(C)[C@@H](CC(C)C)C(=O)O[C@H](Cc2ccc(C3(n4cc(Cl)cn4)CCC3)cc2)C(=O)N(C)[C@@H](CC(C)C)C(=O)O[C@H](C)C(=O)N1C [Example 1c-2, (3S,6R,9S,12R,15S,18R,21S,24R)-6,18-bis(4-(1-(4-chloro-1H-pyrazol-1-yl)cyclobutyl)benzyl)-3,9,15,21-tetraisobutyl-4,10,12,16,22,24-hexamethyl-1,7,13,19-tetraoxa-4,10,16,22-tetraazacyclotetracosan-2,5,8,11,14,17,20,23-octaone] | 0.001 to 0.01 | ≤ 1 | ≤ 0.0001
4 | CC(C)C[C@H]1C(=O)O[C@H](Cc2ccc(C(C3CC3)n3cc(OC(C)C)cn3)cc2)C(=O)N(C)[C@@H](CC(C)C)C(=O)O[C@H](C)C(=O)N(C)[C@@H](CC(C)C)C(=O)O[C@H](Cc2ccc(C(C3CC3)n3cc(OC(C)C)cn3)cc2)C(=O)N(C)[C@@H](CC(C)C)C(=O)O[C@H](C)C(=O)N1C (stereo partly drawn) [Example 1c-5, (3S,6R,9S,12R,15S,18R,21S,24R)-6,18-bis(4-(cyclopropyl(4-isopropoxy-1H-pyrazol-1-yl)methyl)benzyl)-3,9,15,21-tetraisobutyl-4,10,12,16,22,24-hexamethyl-1,7,13,19-tetraoxa-4,10,16,22-tetraazacyclotetracosan-2,5,8,11,14,17,20,23-octaone] | 0.001 to 0.01 | ≤ 1 | 0.0001 to 0.001
5 | CC(C)C[C@H]1C(=O)O[C@H](Cc2ccc(Cn3cc(Br)cn3)cc2)C(=O)N(C)[C@@H](CC(C)C)C(=O)O[C@H](C)C(=O)N(C)[C@@H](CC(C)C)C(=O)O[C@H](Cc2ccccc2)C(=O)N(C)[C@@H](CC(C)C)C(=O)O[C@H](C)C(=O)N1C [Example 2-22, (3S,6R,9S,12R,15S,18R,21S,24R)-6-benzyl-18-(4-((4-bromo-1H-pyrazol-1-yl)methyl)benzyl)-3,9,15,21-tetraisobutyl-4,10,12,16,22,24-hexamethyl-1,7,13,19-tetraoxa-4,10,16,22-tetraazacyclotetracosan-2,5,8,11,14,17,20,23-octaone] | 0.001 to 0.01 | 1 to 10 | 0.0001 to 0.001
6 | CC(C)C[C@H]1C(=O)O[C@H](Cc2ccc(Cn3cc(F)cn3)cc2)C(=O)N(C)[C@@H](CC(C)C)C(=O)O[C@H](C)C(=O)N(C)[C@@H](CC(C)C)C(=O)O[C@H](Cc2ccccc2)C(=O)N(C)[C@@H](CC(C)C)C(=O)O[C@H](C)C(=O)N1C [Example 2-28, (3S,6R,9S,12R,15S,18R,21S,24R)-6-benzyl-18-(4-((4-fluoro-1H-pyrazol-1-yl)methyl)benzyl)-3,9,15,21-tetraisobutyl-4,10,12,16,22,24-hexamethyl-1,7,13,19-tetraoxa-4,10,16,22-tetraazacyclotetracosan-2,5,8,11,14,17,20,23-octaone] | 0.001 to 0.01 | 1 to 10 | 0.0001 to 0.001
7 | C#Cc1cnn(Cc2ccc(C[C@H]3OC(=O)[C@H](CC(C)C)N(C)C(=O)[C@@H](C)OC(=O)[C@H](CC(C)C)N(C)C(=O)[C@@H](Cc4ccccc4)OC(=O)[C@H](CC(C)C)N(C)C(=O)[C@@H](C)OC(=O)[C@H](CC(C)C)N(C)C3=O)cc2)c1 [Example 2-51, (3S,6R,9S,12R,15S,18R,21S,24R)-6-benzyl-18-(4-((4-ethynyl-1H-pyrazol-1-yl)methyl)benzyl)-3,9,15,21-tetraisobutyl-4,10,12,16,22,24-hexamethyl-1,7,13,19-tetraoxa-4,10,16,22-tetraazacyclotetracosan-2,5,8,11,14,17,20,23-octaone] | 0.001 to 0.01 | 1 to 10 | 0.0001 to 0.001
8 | CC(C)C[C@H]1C(=O)O[C@H](Cc2ccc(Cn3nccc3C3CC3)cc2)C(=O)N(C)[C@@H](CC(C)C)C(=O)O[C@H](C)C(=O)N(C)[C@@H](CC(C)C)C(=O)O[C@H](Cc2ccccc2)C(=O)N(C)[C@@H](CC(C)C)C(=O)O[C@H](C)C(=O)N1C [Example 2-66, (3S,6R,9S,12R,15S,18R,21S,24R)-6-benzyl-18-(4-((5-cyclopropyl-1H-pyrazol-1-yl)methyl)benzyl)-3,9,15,21-tetraisobutyl-4,10,12,16,22,24-hexamethyl-1,7,13,19-tetraoxa-4,10,16,22-tetraazacyclotetracosan-2,5,8,11,14,17,20,23-octaone] | 0.001 to 0.01 | 1 to 10 | 0.0001 to 0.001
9 | CC(C)C[C@H]1C(=O)O[C@H](Cc2ccc(Cn3nccc3C(C)C)cc2)C(=O)N(C)[C@@H](CC(C)C)C(=O)O[C@H](C)C(=O)N(C)[C@@H](CC(C)C)C(=O)O[C@H](Cc2ccccc2)C(=O)N(C)[C@@H](CC(C)C)C(=O)O[C@H](C)C(=O)N1C [Example 2-69, (3S,6R,9S,12R,15S,18R,21S,24R)-6-benzyl-3,9,15,21-tetraisobutyl-18-(4-((5-isopropyl-1H-pyrazol-1-yl)methyl)benzyl)-4,10,12,16,22,24-hexamethyl-1,7,13,19-tetraoxa-4,10,16,22-tetraazacyclotetracosan-2,5,8,11,14,17,20,23-octaone] | 0.001 to 0.01 | 1 to 10 | 0.0001 to 0.001
